Article PMC8800111 (The Journal of Biological Chemistry, 2021)
Read-outs that look alike come from different tables or passages of the source.

How the values were obtained:
Type in all cases: cell-based
[1] = molecular target: proteins of U3A human fibrosarcoma cells (4462 proteins detected) (Homo sapiens, UniProt Q9Y3A4); conditions: protein RRP7A; U3A cells
[2] = molecular target: proteins of U3A human fibrosarcoma cells (4462 proteins detected) (Homo sapiens, UniProt Q99832); conditions: protein CCT7; U3A cells
[3] = molecular target: proteins of U3A human fibrosarcoma cells (4462 proteins detected) (Homo sapiens, UniProt P27694); conditions: protein RPA1; U3A cells
[4] = molecular target: proteins of U3A human fibrosarcoma cells (4462 proteins detected) (Homo sapiens, UniProt Q9UKV5); conditions: protein AMFR; U3A cells
Chain of proteins of U3A human fibrosarcoma cells (4462 proteins detected) (Homo sapiens, UniProt Q9UKV5) (Q9UKV5 whole entry): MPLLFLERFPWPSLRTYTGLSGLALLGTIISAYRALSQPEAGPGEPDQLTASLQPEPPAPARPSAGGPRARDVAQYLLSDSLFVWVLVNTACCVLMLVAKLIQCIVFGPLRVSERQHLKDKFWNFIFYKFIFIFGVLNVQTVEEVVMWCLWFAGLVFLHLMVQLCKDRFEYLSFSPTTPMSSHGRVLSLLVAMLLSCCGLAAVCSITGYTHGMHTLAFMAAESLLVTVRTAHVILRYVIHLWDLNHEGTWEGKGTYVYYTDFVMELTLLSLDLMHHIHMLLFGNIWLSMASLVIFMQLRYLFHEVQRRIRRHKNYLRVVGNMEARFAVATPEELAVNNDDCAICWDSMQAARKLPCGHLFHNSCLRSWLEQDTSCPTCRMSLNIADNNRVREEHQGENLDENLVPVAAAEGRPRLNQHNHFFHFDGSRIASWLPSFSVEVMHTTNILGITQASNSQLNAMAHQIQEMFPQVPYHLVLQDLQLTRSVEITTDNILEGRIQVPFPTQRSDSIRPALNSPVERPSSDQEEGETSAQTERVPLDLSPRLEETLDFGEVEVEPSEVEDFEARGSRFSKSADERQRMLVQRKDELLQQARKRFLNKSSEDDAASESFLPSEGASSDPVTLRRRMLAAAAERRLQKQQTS

[5] = molecular target: proteins of U3A human fibrosarcoma cells (4462 proteins detected) (Homo sapiens, UniProt Q13596); conditions: protein SNX1; U3A cells
[6] = molecular target: proteins of U3A human fibrosarcoma cells (4462 proteins detected) (Homo sapiens, UniProt O76003); conditions: protein GLRX3; U3A cells
Chain of proteins of U3A human fibrosarcoma cells (4462 proteins detected) (Homo sapiens, UniProt O76003) (O76003 whole entry): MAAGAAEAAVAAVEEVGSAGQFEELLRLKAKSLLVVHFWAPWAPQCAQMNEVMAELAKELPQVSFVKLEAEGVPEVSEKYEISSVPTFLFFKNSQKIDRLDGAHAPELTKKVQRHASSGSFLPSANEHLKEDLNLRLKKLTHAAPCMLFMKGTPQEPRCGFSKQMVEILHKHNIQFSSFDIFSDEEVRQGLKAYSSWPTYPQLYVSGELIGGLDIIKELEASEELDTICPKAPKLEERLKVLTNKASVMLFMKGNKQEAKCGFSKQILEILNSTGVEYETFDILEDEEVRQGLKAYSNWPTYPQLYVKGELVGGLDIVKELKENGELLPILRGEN

[7] = molecular target: proteins of U3A human fibrosarcoma cells (4462 proteins detected) (Homo sapiens, UniProt Q8IVL0); conditions: protein NAV3, U3A cells
[8] = molecular target: proteins of U3A human fibrosarcoma cells (4462 proteins detected) (Homo sapiens, UniProt O95487); conditions: protein SEC24B, U3A cells
[9] = molecular target: proteins of U3A human fibrosarcoma cells (4462 proteins detected) (Homo sapiens, UniProt Q495W5); conditions: protein FUT11; U3A cells
Chain of proteins of U3A human fibrosarcoma cells (4462 proteins detected) (Homo sapiens, UniProt Q495W5) (Q495W5 whole entry): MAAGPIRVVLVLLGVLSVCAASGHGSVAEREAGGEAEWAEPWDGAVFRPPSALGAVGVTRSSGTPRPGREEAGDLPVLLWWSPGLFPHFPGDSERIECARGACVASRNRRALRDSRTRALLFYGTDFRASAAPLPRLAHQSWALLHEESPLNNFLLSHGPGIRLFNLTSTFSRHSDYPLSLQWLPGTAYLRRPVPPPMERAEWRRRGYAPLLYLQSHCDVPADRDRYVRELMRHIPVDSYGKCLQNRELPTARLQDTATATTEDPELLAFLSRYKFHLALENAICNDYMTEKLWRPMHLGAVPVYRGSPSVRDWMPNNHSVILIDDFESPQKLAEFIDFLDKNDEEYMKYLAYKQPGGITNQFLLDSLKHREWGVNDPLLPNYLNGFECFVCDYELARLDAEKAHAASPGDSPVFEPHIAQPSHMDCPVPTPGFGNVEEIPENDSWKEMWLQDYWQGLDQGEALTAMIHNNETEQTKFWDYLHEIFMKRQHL

[10] = molecular target: proteins of U3A human fibrosarcoma cells (4462 proteins detected) (Homo sapiens, UniProt Q8N9N8); conditions: protein EIF1AD; U3A, 10 μM, 2 h
Chain of proteins of U3A human fibrosarcoma cells (4462 proteins detected) (Homo sapiens, UniProt Q8N9N8) (Q8N9N8 whole entry): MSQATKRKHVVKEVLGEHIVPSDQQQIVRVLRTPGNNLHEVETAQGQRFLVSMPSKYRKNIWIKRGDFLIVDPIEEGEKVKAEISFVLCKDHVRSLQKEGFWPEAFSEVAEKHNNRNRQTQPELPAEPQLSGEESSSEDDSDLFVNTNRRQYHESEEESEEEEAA

[11] = molecular target: proteins of U3A human fibrosarcoma cells (4462 proteins detected) (Homo sapiens, UniProt Q9Y3D3); conditions: protein MRPS16; U3A, 10 μM, 2 h
[12] = molecular target: proteins of U3A human fibrosarcoma cells (4462 proteins detected) (Homo sapiens, UniProt Q9NY33); conditions: protein DPP3, U3A cells
Chain of proteins of U3A human fibrosarcoma cells (4462 proteins detected) (Homo sapiens, UniProt Q9NY33) (Q9NY33 whole entry): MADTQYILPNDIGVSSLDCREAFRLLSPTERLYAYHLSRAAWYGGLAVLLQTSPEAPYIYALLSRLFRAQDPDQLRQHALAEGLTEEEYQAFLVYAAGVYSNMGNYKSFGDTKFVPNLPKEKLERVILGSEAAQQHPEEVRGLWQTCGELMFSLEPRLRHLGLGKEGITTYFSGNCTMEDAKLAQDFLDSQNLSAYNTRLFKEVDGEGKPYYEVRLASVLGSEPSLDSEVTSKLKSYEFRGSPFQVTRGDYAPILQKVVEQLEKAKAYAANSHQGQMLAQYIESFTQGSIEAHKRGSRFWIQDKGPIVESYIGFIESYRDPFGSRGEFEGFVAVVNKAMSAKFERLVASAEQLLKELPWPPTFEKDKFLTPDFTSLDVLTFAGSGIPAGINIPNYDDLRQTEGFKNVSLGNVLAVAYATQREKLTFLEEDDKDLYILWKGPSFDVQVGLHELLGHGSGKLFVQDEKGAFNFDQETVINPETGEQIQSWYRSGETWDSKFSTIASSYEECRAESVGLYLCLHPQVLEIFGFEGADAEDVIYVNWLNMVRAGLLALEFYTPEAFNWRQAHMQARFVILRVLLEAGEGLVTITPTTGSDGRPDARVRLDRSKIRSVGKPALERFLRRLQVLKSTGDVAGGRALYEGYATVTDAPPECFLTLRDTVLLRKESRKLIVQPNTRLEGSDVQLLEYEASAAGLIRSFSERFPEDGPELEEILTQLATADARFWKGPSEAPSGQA

[13] = molecular target: proteins of U3A human fibrosarcoma cells (4462 proteins detected) (Homo sapiens, UniProt Q9UJU6); conditions: protein DBNL, U3A cells
Chain of proteins of U3A human fibrosarcoma cells (4462 proteins detected) (Homo sapiens, UniProt Q9UJU6) (Q9UJU6 whole entry): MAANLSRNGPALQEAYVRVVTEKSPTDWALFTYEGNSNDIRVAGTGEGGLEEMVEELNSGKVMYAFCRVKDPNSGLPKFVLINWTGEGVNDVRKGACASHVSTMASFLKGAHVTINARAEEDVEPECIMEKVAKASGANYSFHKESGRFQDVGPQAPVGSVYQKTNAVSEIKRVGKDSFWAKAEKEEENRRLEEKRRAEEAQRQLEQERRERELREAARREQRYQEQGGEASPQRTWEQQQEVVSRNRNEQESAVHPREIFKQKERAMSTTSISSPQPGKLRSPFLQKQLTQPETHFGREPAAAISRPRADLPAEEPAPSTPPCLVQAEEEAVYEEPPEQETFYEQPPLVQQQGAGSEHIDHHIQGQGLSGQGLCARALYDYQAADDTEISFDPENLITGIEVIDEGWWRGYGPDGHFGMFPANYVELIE

[14] = molecular target: proteins of U3A human fibrosarcoma cells (4462 proteins detected) (Homo sapiens, UniProt A0FGR8); conditions: protein ESYT2; U3A, 10 μM, 2 h
[15] = molecular target: proteins of U3A human fibrosarcoma cells (4462 proteins detected) (Homo sapiens, UniProt P11182); conditions: protein DBT; U3A cells
Chain of proteins of U3A human fibrosarcoma cells (4462 proteins detected) (Homo sapiens, UniProt P11182) (P11182 62-482): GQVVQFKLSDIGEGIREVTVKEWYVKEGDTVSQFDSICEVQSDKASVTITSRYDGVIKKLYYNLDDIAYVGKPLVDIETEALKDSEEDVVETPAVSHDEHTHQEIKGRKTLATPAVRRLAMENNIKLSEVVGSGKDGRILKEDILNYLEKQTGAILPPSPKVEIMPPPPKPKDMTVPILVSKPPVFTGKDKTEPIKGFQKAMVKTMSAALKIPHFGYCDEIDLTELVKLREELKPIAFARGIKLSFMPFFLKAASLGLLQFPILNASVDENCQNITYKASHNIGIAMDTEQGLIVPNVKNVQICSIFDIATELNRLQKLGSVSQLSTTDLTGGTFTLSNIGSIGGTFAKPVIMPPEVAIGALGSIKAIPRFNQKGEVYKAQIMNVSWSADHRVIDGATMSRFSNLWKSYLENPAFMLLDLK

[16] = system: proteins of U3A human fibrosarcoma cells (4462 proteins detected)
[17] = molecular target: proteins of U3A human fibrosarcoma cells (4462 proteins detected) (Homo sapiens, UniProt Q9Y6D5); conditions: protein ARFGEF2; U3A cells
[18] = molecular target: proteins of U3A human fibrosarcoma cells (4462 proteins detected) (Homo sapiens, UniProt Q8NFQ8); conditions: protein TOR1AIP2; U3A cells
[19] = molecular target: proteins of U3A human fibrosarcoma cells (4462 proteins detected) (Homo sapiens, UniProt P32320); conditions: protein CDA, U3A cells
Chain of proteins of U3A human fibrosarcoma cells (4462 proteins detected) (Homo sapiens, UniProt P32320) (P32320 whole entry): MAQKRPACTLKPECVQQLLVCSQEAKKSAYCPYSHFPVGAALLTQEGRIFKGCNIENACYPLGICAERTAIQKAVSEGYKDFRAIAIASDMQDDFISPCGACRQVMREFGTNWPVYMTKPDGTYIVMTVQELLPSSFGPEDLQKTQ

[20] = molecular target: proteins of U3A human fibrosarcoma cells (4462 proteins detected) (Homo sapiens, UniProt Q9NRW3); conditions: protein APOBEC3C; U3A cells
Chain of proteins of U3A human fibrosarcoma cells (4462 proteins detected) (Homo sapiens, UniProt Q9NRW3) (Q9NRW3 whole entry): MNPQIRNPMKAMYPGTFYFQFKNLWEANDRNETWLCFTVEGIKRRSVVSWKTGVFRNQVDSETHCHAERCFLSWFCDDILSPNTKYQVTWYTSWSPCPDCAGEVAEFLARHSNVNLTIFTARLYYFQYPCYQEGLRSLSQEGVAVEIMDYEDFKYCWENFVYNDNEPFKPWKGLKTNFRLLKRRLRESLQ

[21] = molecular target: proteins of U3A human fibrosarcoma cells (4462 proteins detected) (Homo sapiens, UniProt Q15459); conditions: protein SF3A1; U3A cells
[22] = molecular target: proteins of U3A human fibrosarcoma cells (4462 proteins detected) (Homo sapiens, UniProt P06733); conditions: protein ENO1; U3A, 10 μM, 2 h
[23] = molecular target: proteins of U3A human fibrosarcoma cells (4462 proteins detected) (Homo sapiens, UniProt P11388); conditions: protein TOP2A; U3A cells
[24] = molecular target: proteins of U3A human fibrosarcoma cells (4462 proteins detected) (Homo sapiens, UniProt Q9Y608); conditions: protein LRRFIP2, U3A cells
Chain of proteins of U3A human fibrosarcoma cells (4462 proteins detected) (Homo sapiens, UniProt Q9Y608) (Q9Y608 whole entry): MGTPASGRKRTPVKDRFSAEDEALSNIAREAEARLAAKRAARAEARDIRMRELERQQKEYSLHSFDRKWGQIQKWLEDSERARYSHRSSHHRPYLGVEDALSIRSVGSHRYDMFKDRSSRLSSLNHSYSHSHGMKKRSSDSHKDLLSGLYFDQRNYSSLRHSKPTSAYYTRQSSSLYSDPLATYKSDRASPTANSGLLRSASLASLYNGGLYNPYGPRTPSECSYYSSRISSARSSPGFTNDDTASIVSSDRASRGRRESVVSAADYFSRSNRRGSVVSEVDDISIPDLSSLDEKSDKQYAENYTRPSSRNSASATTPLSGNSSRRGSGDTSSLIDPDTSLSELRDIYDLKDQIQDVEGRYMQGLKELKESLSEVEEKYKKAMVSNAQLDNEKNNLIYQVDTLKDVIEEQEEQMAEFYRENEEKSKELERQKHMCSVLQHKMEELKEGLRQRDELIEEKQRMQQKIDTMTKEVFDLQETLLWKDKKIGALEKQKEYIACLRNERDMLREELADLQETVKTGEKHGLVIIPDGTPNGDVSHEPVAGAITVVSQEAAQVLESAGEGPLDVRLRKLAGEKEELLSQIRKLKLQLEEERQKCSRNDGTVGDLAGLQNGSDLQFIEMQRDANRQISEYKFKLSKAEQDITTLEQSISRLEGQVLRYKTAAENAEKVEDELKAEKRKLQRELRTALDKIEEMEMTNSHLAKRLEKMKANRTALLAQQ

[25] = molecular target: proteins of U3A human fibrosarcoma cells (4462 proteins detected) (Homo sapiens, UniProt O75663); conditions: protein TIPRL; soluble abundance after heat, U3A cells
[26] = molecular target: proteins of U3A human fibrosarcoma cells (4462 proteins detected) (Homo sapiens, UniProt Q9BZJ0); conditions: protein CRNKL1; U3A cells
[27] = molecular target: proteins of U3A human fibrosarcoma cells (4462 proteins detected) (Homo sapiens, UniProt Q9Y266); conditions: protein NUDC; U3A cells
Chain of proteins of U3A human fibrosarcoma cells (4462 proteins detected) (Homo sapiens, UniProt Q9Y266) (Q9Y266 whole entry): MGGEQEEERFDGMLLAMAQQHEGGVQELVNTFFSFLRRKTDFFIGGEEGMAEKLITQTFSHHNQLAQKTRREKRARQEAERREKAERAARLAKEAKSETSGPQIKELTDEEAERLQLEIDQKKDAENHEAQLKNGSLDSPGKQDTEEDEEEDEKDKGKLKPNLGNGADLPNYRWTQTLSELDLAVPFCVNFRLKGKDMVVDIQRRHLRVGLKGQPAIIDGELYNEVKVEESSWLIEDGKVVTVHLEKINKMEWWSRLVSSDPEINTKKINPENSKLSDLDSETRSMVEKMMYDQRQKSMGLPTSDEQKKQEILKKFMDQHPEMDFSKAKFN

Chain of proteins of U3A human fibrosarcoma cells (4462 proteins detected) (Homo sapiens, UniProt Q9Y3A4) (Q9Y3A4 whole entry): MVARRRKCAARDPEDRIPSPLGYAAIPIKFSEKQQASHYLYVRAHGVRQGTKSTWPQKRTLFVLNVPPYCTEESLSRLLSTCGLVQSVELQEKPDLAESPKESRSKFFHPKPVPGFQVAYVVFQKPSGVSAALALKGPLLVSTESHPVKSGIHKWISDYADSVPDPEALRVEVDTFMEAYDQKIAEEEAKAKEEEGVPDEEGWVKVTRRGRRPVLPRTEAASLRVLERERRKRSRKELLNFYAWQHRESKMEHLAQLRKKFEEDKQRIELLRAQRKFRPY

CCc1nc(N)nc(N)c1-c1ccc(Cl)cc1 [pyrimethamine]
Log2 (PYR/DMSO) [1]: 0.19
Log2 (PYR/DMSO) [2]: 0.18
Log2 (PYR/DMSO) [3]: 0.16
Log2 (PYR/DMSO) [4]: 0.16
Log2 (PYR/DMSO) [5]: 0.17
Log2 (PYR/DMSO) [6]: 0.16
Log2 (PYR/DMSO) [7]: -0.04
Log2 (PYR/DMSO) [8]: -0.04
Log2 (PYR/DMSO) [9]: 0.17
Log2 (PYR/DMSO), EIF1AD [10]: -0.14
Log2 (PYR/DMSO), MRPS16 [11]: 0.24
Log2 (PYR/DMSO) [12]: -0.04
Log2 (PYR/DMSO) [13]: -0.04
Log2 (PYR/DMSO), ESYT2 [14]: 0.33
Log2 (PYR/DMSO) [15]: 0.16
Log2 (PYR/DMSO) ([16]; protein AGO2, AGO1, AGO3, AGO4, soluble abundance after heat, U3A cells): 0.14
Log2 (PYR/DMSO), ANXA8L1; ANXA8L2; ANXA8 ([16]; protein ANXA8L1, ANXA8L2, ANXA8, U3A, 10 μM, 2 h): -0.40
Log2 (PYR/DMSO), ATP2A2; ATP2A1; ATP2A3 ([16]; protein ATP2A2, ATP2A1, ATP2A3, U3A, 10 μM, 2 h): 0.28
Log2 (PYR/DMSO) ([16]; protein CUX1, U3A cells): 0.20
Log2 (PYR/DMSO) ([16]; protein DHRS4, DHRS4L1, soluble abundance after heat, U3A cells): 0.13
Log2 (PYR/DMSO) ([16]; protein EIF3C, EIF3CL, U3A cells): 0.18
Log2 (PYR/DMSO) ([16]; protein Em:AP000351.3, GSTT2, GSTT2B, U3A cells): -0.05
Log2 (PYR/DMSO) ([16]; protein H2AFX, HIST1H2AJ, HIST1H2AH, H2AFJ, HIST2H2AC, HIST1H2AC, HIST3H2A, HIST2H2AA3, HIST1H2AD, HIST1H2AG, HIST1H2AB, HIST1H2AA, HIST2H2AB, U3A cells): 0.19
Log2 (PYR/DMSO) ([16]; protein HIST2H3A, HIST3H3, HIST1H3A, H3F3B, H3F3A, HIST2H3PS2, H3F3C, U3A cells): 0.22
Log2 (PYR/DMSO) ([16]; protein HPCAL1, HPCA, soluble abundance after heat, U3A cells): 0.15
Log2 (PYR/DMSO) ([16]; protein KHDRBS1, KHDRBS2, soluble abundance after heat, U3A cells): 0.14
Log2 (PYR/DMSO), KIAA2012; SPEG ([16]; protein KIAA2012, SPEG, U3A, 10 μM, 2 h): 0.26
Log2 (PYR/DMSO) ([16]; protein MOCS2, U3A cells): -0.04
Log2 (PYR/DMSO) ([16]; protein POLR2J3, POLR2J, POLR2J2, U3A cells): -0.04
Log2 (PYR/DMSO) ([16]; protein POM121C, POM121, POMZP3, soluble abundance after heat, U3A cells): 0.14
Log2 (PYR/DMSO) ([16]; protein PPP1R2, PPP1R2P3, U3A cells): -0.04
Log2 (PYR/DMSO), PRSS1; PRSS3P2; PRSS2 ([16]; protein PRSS1, PRSS3P2, PRSS2, U3A, 10 μM, 2 h): -0.20
Log2 (PYR/DMSO), SLC25A5; SLC25A4; SLC25A6; SLC25A31 ([16]; protein SLC25A5, SLC25A4, SLC25A6, SLC25A31, U3A, 10 μM, 2 h): 0.31
Log2 (PYR/DMSO) ([16]; protein UBE2Q1, UBE2Q2, U3A cells): 0.20
Log2 (PYR/DMSO) [17]: 0.18
Log2 (PYR/DMSO) [18]: 0.17
Log2 (PYR/DMSO) [19]: -0.04
Log2 (PYR/DMSO) [20]: 0.22
Log2 (PYR/DMSO) [21]: 0.16
Log2 (PYR/DMSO), ENO1 [22]: -0.17
Log2 (PYR/DMSO) [23]: 0.18
Log2 (PYR/DMSO) [24]: -0.04
Log2 (PYR/DMSO) [25]: 0.14
Log2 (PYR/DMSO) [26]: 0.16
Log2 (PYR/DMSO) [27]: 0.16
